{"source": "patent US12721801B2", "about": "“Compositions and methods relating to stimulation of hyaluronic acid” (Alastin Skincare, Inc., priority 2020, dated 2026)", "key": {"[1]": {"tested_on": "Hyaluronic Acid Synthase 2 (HAS2)", "assay": "Gene expression study (RNA sequencing), HAS2 expression in keratinocytes", "type": "cell-based", "conditions": "human keratinocytes, 24 hours of compound exposure, FIG. 2", "method": "(§1) Cell Lines. Human adult dermal fibroblast and keratinocyte cell lines were treated with 11 different compound treatments (plus DMSO control as treatment #12). Primary fibroblasts, keratinocytes sourced from ZenBio. Primary cells were plated in cell specific media at 5K or 10K cells per cm^2 as per ZenBio instructions. Cells were plated in 48 well plates (Greiner) in triplicate, one cell line per plate. Media volume was 500 ul per well. Outer two columns of wells were not used. All rows were used. Cells were cultured for 2 days in 37° C. 5% CO2 incubator. After 48 hours all the cell cultures were uniform and appeared healthy, no appreciable number of floating dead cells or evidence of vacuolization of cells that might indicate apoptotic or dying cells.\n(§2) Compounds. Stocks of compounds 1 through 8 on the list below were prepared in PBS at 100× the concentration indicated in red type. […] This stock was 100× of final concentration. A 20 mg/ml stock of compound 10 (CBD) was prepared in DMSO. […] This stock was 200× of final concentration.\n(§3) Dosing. After 48 hours of attachment culture, fibroblasts and keratinocytes were treated with the test compounds. […]\n(§4) RNA Lysate preparation. […] All samples were shipped frozen on dry ice to MedGenome for RNA extraction, library construction and sequencing to 25M paired end 100 bp reads per sample. […]"}, "[2]": {"tested_on": "Hyaluronidase 2 (HYAL2)", "assay": "Gene expression study (RNA sequencing), HYAL2 expression in keratinocytes", "type": "cell-based", "conditions": "human keratinocytes, 24 hours of compound exposure, FIG. 3", "method": "as §1, §2, §3, §4"}, "[3]": {"tested_on": "human fibroblast cells", "assay": "HA production assessment, SDS-PAGE of fibroblast supernatants", "type": "cell-based", "conditions": "Experiment 2, primary adult human dermal fibroblasts, 72 hours, octapeptide 100 ug/mL, SymDecanox 250 ug/mL, others 500 ug/mL, FIG. 6", "method": "In a second experiment, HA production was also assessed with the test compounds below. Briefly, primary adult human dermal fibroblast cells were cultured until near confluent in 6 well plates. The cells were treated with the compounds and concentrations indicated to the right. After 72 hours, 100 μL of media were collected from each treatment condition and was concentrated in a SpeedVac concentrator to a final volume of ~10 uL.\nAll 10 μL of the supernatants were loaded onto an acrylamide gel (NuPAGE 4-12% Bis-Tris Protein Gel) and run at 200V for 3 hours. The gel was stained to detect the presence of HA. Data is seen in FIG. 6. […] Lane 11 is the negative control, representing the untreated cells. This band represents the cells constitutive level of HA. Treating the cells with all the indicated compounds (lanes 1-10) produced an increased level of high molecular weight HA. […]"}, "[4]": {"assay": "Preparation of compound stocks in DMSO (dissolution observed)", "type": "physicochemical", "method": "as §2"}}, "data": [{"compound": "Hexapeptide-11: hexapeptide test agent; FVAPFP (SEQ ID NO: 19) is printed as a hexapeptide sequence, not tied explicitly", "values": [{"measurement": "HAS2 expression in keratinocytes", "setting": "[1]", "value": "excellent upregulation"}, {"measurement": "Hyaluronidase 2 (HYAL2) expression in keratinocytes", "setting": "[2]", "value": "potent downregulation"}]}, {"compound": "tetradecyl-diaminobutyroylvalyldiaminobutyric urea trifluoroacetate [SynHycan]", "values": [{"measurement": "Level of high molecular weight HA (band on gel)", "setting": "[3]", "value": "secrete high molecular weight HA"}]}, {"compound": "C=C(C)[C@@H]1CCC(C)=C[C@H]1c1c(O)cc(CCCCC)cc1O", "note": "[CBD]", "values": [{"measurement": "Dissolution of stock in DMSO", "setting": "[4]; 20 mg/ml stock in DMSO", "value": "slightly cloudy"}]}, {"compound": "phosphatidylserine", "values": [{"measurement": "Level of high molecular weight HA (band on gel)", "setting": "[3]", "value": "secrete high molecular weight HA"}, {"measurement": "Dissolution of stock in DMSO", "setting": "[4]; 50 mg/ml stock in DMSO, extensive vortexing and warming", "value": "did not fully go into solution"}]}, {"compound": "CCCCCCCC(=O)CCc1ccc(O)c(OC)c1", "note": "[SymDecanox™, hydroxymethoxyphenyl decanone]", "values": [{"measurement": "Level of high molecular weight HA (band on gel)", "setting": "[3]", "value": "secrete high molecular weight HA"}]}]}
